Experimental data reported in ChEMBL document CHEMBL4725268, “Anticonvulsant and analgesic in neuropathic pain activity in a group of new aminoalkanol derivatives” (Bioorg Med Chem Lett, 2020).
Active and inactive are the calls of the source.

Assays:
[1] = molecular target: T1, 5-hydroxytryptamine receptor 1A (Homo sapiens, UniProt P08908); test: Binding affinity to 5-HT1A (unknown origin)
T1 sequence (P08908 whole entry): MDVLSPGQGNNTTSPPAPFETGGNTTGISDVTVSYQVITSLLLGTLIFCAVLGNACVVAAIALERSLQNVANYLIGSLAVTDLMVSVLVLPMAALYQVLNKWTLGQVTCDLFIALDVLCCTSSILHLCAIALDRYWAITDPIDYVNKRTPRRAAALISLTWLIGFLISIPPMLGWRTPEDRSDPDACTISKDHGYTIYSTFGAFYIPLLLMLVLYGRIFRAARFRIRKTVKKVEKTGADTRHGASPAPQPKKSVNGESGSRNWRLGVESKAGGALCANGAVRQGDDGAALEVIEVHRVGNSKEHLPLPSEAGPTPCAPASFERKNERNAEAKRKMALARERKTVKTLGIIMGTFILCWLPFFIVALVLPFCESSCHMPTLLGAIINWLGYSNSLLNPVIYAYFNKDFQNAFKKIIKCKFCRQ

Mus musculus [2] = test: Antiallodynic activity in mouse model of OXA-induced peripheral neuropathy assessed as mean latency time to nocifensive response at 18 mg/kg, ip administered after 3 hrs of OXA stimulation and measured after 1 hr by cold plate method (reference value: 59.76 +/- 0.16 sec); type: functional
[3] = Drug metabolism in mouse microsome assessed as formation of monohydroxylated metabolite; type: ADME; details: microsomes
in vitro [4] = details: mouse, microsomes
Description: Metabolic stability in mouse microsome assessed as half life

Escherichia coli [5] = test: Antimicrobial activity against Escherichia coli ATCC 25922 assessed as reduction in bacterial growth at 0.195 to 100 ug/ml by serial dilution method; type: organism-based; details: in vivo, dose 0.195-100 µg/ml
[6] = Protection index, ratio of TD50 for toxicity in ip dosed mouse to ED50 for anticonvulsant activity in ip dosed mouse; type: organism-based; details: in vivo, read-out: PI
in vitro [7] = details: mouse, microsomes; remark: listed apart in the source
Description: Metabolic stability in mouse microsome assessed as intrinsic clearance

[8] = Toxicity in ip dosed mouse assessed as motor impairment by rotarod test; type: organism-based; details: in vivo
Enterococcus faecalis = test: Antimicrobial activity against Enterococcus faecalis ATCC 29212 assessed as reduction in bacterial growth at 0.195 to 100 ug/ml by serial dilution method; type: organism-based; details: in vivo, dose 0.195-100 µg/ml
Mus musculus [9] = test: Anticonvulsant activity in ip dosed mouse assessed as protection against current-induced seizure by maximal electroshock seizure test; type: functional
Staphylococcus aureus [10] = test: Antimicrobial activity against Staphylococcus aureus ATCC 25923 assessed as reduction in bacterial growth at 0.195 to 100 ug/ml by serial dilution method; type: organism-based; details: in vivo, dose 0.195-100 µg/ml
[11] = Toxicity in mouse assessed as lethality at 30 mg/kg, ip; type: organism-based; details: in vivo
Escherichia coli [12] = test: Antimicrobial activity against Escherichia coli ATCC 35218 assessed as reduction in bacterial growth at 0.195 to 100 ug/ml by serial dilution method; type: organism-based; details: in vivo, dose 0.195-100 µg/ml
Bacteroides fragilis = test: Antimicrobial activity against Bacteroides fragilis ATCC 25285 assessed as reduction in bacterial growth at 0.195 to 100 ug/ml by disk diffusion method; type: organism-based; details: in vivo, dose 0.195-100 µg/ml
Salmonella enterica = test: Antimicrobial activity against Salmonella enterica ATCC 51957 assessed as reduction in bacterial growth at 0.195 to 100 ug/ml by serial dilution method; type: organism-based; details: in vivo, dose 0.195-100 µg/ml
[13] = Antimicrobial activity against clinical strain Bifidobacterium assessed as reduction in bacterial growth at 0.195 to 100 ug/ml by disk diffusion method; details: dose 0.195-100 µg/ml
Mus musculus [14] = test: Antiallodynic activity in mouse model of OXA-induced peripheral neuropathy assessed as mean paw withdrawal threshold at 18 mg/kg, ip administered after 3 hrs of OXA stimulation and measured after 1 hr by Von-frey method (reference value: 3.144 +/- 0.169 g); type: functional
[15] = Antioxidant activity assessed as DPPH radical scavenging activity at 125 to 1000 uM by microplate method; type: functional; details: dose microM 125-1000
Clostridioides difficile = test: Antimicrobial activity against clinical strain Clostridium difficile assessed as reduction in bacterial growth at 0.195 to 100 ug/ml by disk diffusion method; type: organism-based; details: in vivo, dose 0.195-100 µg/ml
Mus musculus [16] = test: Antiallodynic activity in mouse model of OXA-induced peripheral neuropathy assessed as mean latency time to nocifensive response at 18 mg/kg, ip administered after 7 days of OXA stimulation and measured after 1 hr by cold plate method (reference value: 57.64 +/- 1.267 sec); type: functional
[17] = Toxicity in mouse assessed as lethality at 10 mg/kg, ip; type: organism-based; details: in vivo
Hoylesella loescheii = test: Antimicrobial activity against Prevotella loescheii ATCC 15930 assessed as reduction in bacterial growth at 0.195 to 100 ug/ml by disk diffusion method; type: organism-based, DSM 19665 = JCM 12249 = ATCC 15930; details: in vivo, dose 0.195-100 µg/ml
Staphylococcus aureus [18] = test: Antimicrobial activity against clinical strain Staphylococcus aureus assessed as reduction in bacterial growth at 0.195 to 100 ug/ml by serial dilution method; type: organism-based; details: in vivo, dose 0.195-100 µg/ml
Mus musculus [19] = test: Antiallodynic activity in mouse model of OXA-induced peripheral neuropathy assessed as mean paw withdrawal threshold at 18 mg/kg, ip administered after 7 days of OXA stimulation and measured after 1 hr by Von-frey method (reference value: 3.192 +/- 0.181 g); type: functional
Mus musculus [20] = test: Antiallodynic activity in mouse model of OXA-induced peripheral neuropathy assessed as mean paw withdrawal threshold at 15 mg/kg, ip administered after 3 hrs of OXA stimulation and measured after 1 hr by Von-frey method (reference value: 3.144 +/- 0.169 g); type: functional
[21] = Toxicity in mouse assessed as lethality at 50 mg/kg, ip; type: organism-based; details: in vivo
Mus musculus [22] = test: Antiallodynic activity in mouse model of OXA-induced peripheral neuropathy assessed as mean latency time to nocifensive response at 15 mg/kg, ip administered after 7 days of OXA stimulation and measured after 1 hr by cold plate method (reference value: 57.64 +/- 1.267 sec); type: functional
Mus musculus [23] = test: Antiallodynic activity in mouse model of OXA-induced peripheral neuropathy assessed as mean paw withdrawal threshold at 15 mg/kg, ip administered after 7 days of OXA stimulation and measured after 1 hr by Von-frey method (reference value: 3.192 +/- 0.181 g); type: functional
Mus musculus [24] = test: Antiallodynic activity in mouse model of OXA-induced peripheral neuropathy assessed as mean latency time to nocifensive response at 15 mg/kg, ip administered after 3 hrs of OXA stimulation and measured after 1 hr by cold plate method (reference value: 59.76 +/- 0.16 sec); type: functional
[25] = Genotoxicity in Salmonella typhimurium TA98 assessed as number of revertant at 750 ug by AMES test (reference value: 8 to 8.3); type: toxicity, Salmonella enterica subsp. enterica serovar Typhimurium; details: in vivo; dose 750 µg
[26] = Genotoxicity in Salmonella typhimurium TA98 assessed as mutagenic index at 75 ug by AMES test; type: toxicity, Salmonella enterica subsp. enterica serovar Typhimurium; details: in vivo; dose 75 µg
[27] = Genotoxicity in Salmonella typhimurium TA100 assessed as mutagenic index at 500 ug by AMES test; type: toxicity, Salmonella enterica subsp. enterica serovar Typhimurium; details: in vivo; dose 500 µg
[28] = Genotoxicity in Salmonella typhimurium TA100 assessed as number of revertant at 10 ug by AMES test (reference value: 64.3 to 130.7); type: toxicity, Salmonella enterica subsp. enterica serovar Typhimurium; details: in vivo; dose 10 µg
[29] = Genotoxicity in Salmonella typhimurium TA100 assessed as mutagenic index at 75 ug by AMES test; type: toxicity, Salmonella enterica subsp. enterica serovar Typhimurium; details: in vivo; dose 75 µg
[30] = Genotoxicity in Salmonella typhimurium TA100 assessed as number of revertant at 75 ug by AMES test (reference value: 64.3 to 130.7); type: toxicity, Salmonella enterica subsp. enterica serovar Typhimurium; details: in vivo; dose 75 µg
[31] = Genotoxicity in Salmonella typhimurium TA98 assessed as mutagenic index at 750 ug by AMES test; type: toxicity, Salmonella enterica subsp. enterica serovar Typhimurium; details: in vivo; dose 750 µg
[32] = Genotoxicity in Salmonella typhimurium TA98 assessed as mutagenic index at 500 ug by AMES test; type: toxicity, Salmonella enterica subsp. enterica serovar Typhimurium; details: in vivo; dose 500 µg
[33] = Genotoxicity in Salmonella typhimurium TA98 assessed as number of revertant at 200 ug by AMES test (reference value: 8 to 8.3); type: toxicity, Salmonella enterica subsp. enterica serovar Typhimurium; details: in vivo; dose 200 µg
[34] = Genotoxicity in Salmonella typhimurium TA100 assessed as mutagenic index at 10 ug by AMES test; type: toxicity, Salmonella enterica subsp. enterica serovar Typhimurium; details: in vivo; dose 10 µg
[35] = Genotoxicity in Salmonella typhimurium TA100 assessed as number of revertant at 500 ug by AMES test (reference value: 64.3 to 130.7); type: toxicity, Salmonella enterica subsp. enterica serovar Typhimurium; details: in vivo; dose 500 µg
[36] = Genotoxicity in Salmonella typhimurium TA100 assessed as number of revertant at 200 ug by AMES test (reference value: 64.3 to 130.7); type: toxicity, Salmonella enterica subsp. enterica serovar Typhimurium; details: in vivo; dose 200 µg
[37] = Genotoxicity in Salmonella typhimurium TA98 assessed as number of revertant at 500 ug by AMES test (reference value: 8 to 8.3); type: toxicity, Salmonella enterica subsp. enterica serovar Typhimurium; details: in vivo; dose 500 µg
[38] = Genotoxicity in Salmonella typhimurium TA98 assessed as mutagenic index at 200 ug by AMES test; type: toxicity, Salmonella enterica subsp. enterica serovar Typhimurium; details: in vivo; dose 200 µg
[39] = Genotoxicity in Salmonella typhimurium TA100 assessed as mutagenic index at 200 ug by AMES test; type: toxicity, Salmonella enterica subsp. enterica serovar Typhimurium; details: in vivo; dose 200 µg
[40] = Genotoxicity in Salmonella typhimurium TA98 assessed as mutagenic index at 10 ug by AMES test; type: toxicity, Salmonella enterica subsp. enterica serovar Typhimurium; details: in vivo; dose 10 µg
[41] = molecular target: T2, 5-hydroxytryptamine receptor 1A (Homo sapiens) (UniProt P08908); test: Binding affinity to 5-HT1A (unknown origin) at 10^-5 M; details: dose 1.0 10^-5M
T2 sequence (whole entry): T1 sequence (P08908 whole entry)

[42] = Genotoxicity in Salmonella typhimurium TA98 assessed as number of revertant at 10 ug by AMES test (reference value: 8 to 8.3); type: toxicity, Salmonella enterica subsp. enterica serovar Typhimurium; details: in vivo; dose 10 µg
[43] = Genotoxicity in Salmonella typhimurium TA98 assessed as number of revertant at 75 ug by AMES test (reference value: 8 to 8.3); type: toxicity, Salmonella enterica subsp. enterica serovar Typhimurium; details: in vivo; dose 75 µg

Cc1cc(C)c(OCCCN2CCCC(O)C2)c(C)c1.Cl (racemic)
Ki [1]: 3390 nM
Time (Mus musculus [2]): 18.18 s
Drug metabolism [3]: Metabolite_Detected
half-life (in vitro [4]): 38.9 min
Activity (Escherichia coli [5]): Non-Toxic
selectivity ratio [6]: 3.86
microsomal CLint (in vitro [7]): 44.5 µL/min/mg
TD50 [8]: 70.2 mg/kg
Activity (Enterococcus faecalis): Non-Toxic
ED50 (Mus musculus [9]): 18.2 mg/kg
Activity (Staphylococcus aureus [10]): Non-Toxic
Activity [11]: Non-Toxic
Activity (Escherichia coli [12]): Non-Toxic
Activity (Bacteroides fragilis): Non-Toxic
Activity (Salmonella enterica): Non-Toxic
Activity [13]: Non-Toxic
Activity (Mus musculus [14]): 1.958 g
Activity [15]: inactive
Activity (Clostridioides difficile): Non-Toxic
Time (Mus musculus [16]): 10.65 s
Activity [17]: Non-Toxic
Activity (Hoylesella loescheii): Non-Toxic
Activity (Staphylococcus aureus [18]): Non-Toxic
Activity (Mus musculus [19]): 1.947 g

Cc1cc(C)c(OCCCN[C@@H]2CCCC[C@H]2O)c(C)c1 (relative stereo)
Ki [1]: 2370 nM
Drug metabolism [3]: Metabolite_Detected
half-life (in vitro [4]): 27.2 min
selectivity ratio [6]: 2.9
Activity (Mus musculus [20]): 1.999 g
microsomal CLint (in vitro [7]): 128 µL/min/mg
TD50 [8]: 42.9 mg/kg
Activity [21]: Non-Toxic
ED50 (Mus musculus [9]): 14.8 mg/kg
Time (Mus musculus [22]): 7.09 s
Activity (Mus musculus [23]): 1.958 g
Activity [15]: inactive
Time (Mus musculus [24]): 19.35 s

Cc1cccc(C)c1OCCOCCNC1CCC(O)CC1.Cl (centres undefined)
Drug metabolism [3]: Metabolite_Detected
Activity [25]: 3
half-life (in vitro [4]): 87.7 min
Activity_index [26]: 1
Activity_index [27]: 3.8
selectivity ratio [6]: 3.99
microsomal CLint (in vitro [7]): 19.8 µL/min/mg
TD50 [8]: 132 mg/kg
Activity [28]: 226.7
Activity_index [29]: 4.3
ED50 (Mus musculus [9]): 33 mg/kg
Activity [30]: 312.3
Activity_index [31]: 0.4
Activity_index [32]: 0.8
Activity [33]: 9.3
Activity_index [34]: 3.1
Activity [35]: 274.3
Activity [36]: 55
Activity [37]: 6.7
Activity_index [38]: 1.2
Activity_index [39]: 0.8
Activity_index [40]: 1
Activity [41]: inactive
Activity [42]: 8
Activity [43]: 8.3

O=C1NC(=O)C(c2ccccc2)(c2ccccc2)N1 [PHENYTOIN]
selectivity ratio [6]: 8.56

Cc1cc(C)c(OCCCN[C@H]2CC[C@H](O)CC2)c(C)c1
Activity [11]: Toxic
